Test results published in patent US7833795B2, “Assessment of cardiovascular risk using isoprostane biomarkers and COX-2 selective inhibitors” (The Trustees of the University of Pennsylvania, priority 2004, dated 2010).

Columns and labels:
Male Fisher 344 rats [1] = experiment: Plasma free plus esterified 8-iso-PGF2α by GC/MS; type: in vivo, rat
Description: (§1) Animals and treatment protocol: Male Fisher 344 rats (260-280 g) obtained from Charles River Laboratories (Raleigh, N.C.) were used in all experiments. The animals were housed three to a cage. Autoclaved hardwood bedding was used in solid-bottom polycarbonate cages with filter tops. Animal rooms were maintained at 20-25° C. with 35-70% relative humidity with alternating 12-hour light and dark cycles. The rats had free access to deionized, reverse-osmosis-treated water and received autoclaved NIH 31 rodent chow (Zeigler Bros., Gardners, Pa.) ad libitum. For all experiments, rats were fasted overnight and then administered intraperitoneal injections of carbon tetrachloride in canola oil. Control rats received an equal volume of canola oil. Fasting continued throughout the experiment. Rats were anesthetized with Nembutal (0.1 ml/100 g body weight) and 5 ml blood was removed from the dorsal aorta proximal to its bifurcation into the common iliac arteries.
(§2) Indomethacin pretreatment: The indomethacin regimen used has been previously shown to inhibit COX activity in rats by 90% (dose of 5 mg/kg s.c. 24 hours, 12 hours, and 2 hours prior to the injection of CCl4) (Jackson, 1989, J. Pharmacol. Exp. Ther. 250: 9-21). An additional booster dose was injected 8 hours after the last injection of CCl4 for the measurements performed 16 hours after treatment with CCl4.
(§3) Meclofenamic acid pretreatment: Meclofenamic acid was injected at a dose of 5 mg/kg i.p. 12 h and 2 h prior to the injection of CCl4.
(§4) Carbon tetrachloride (CCL4) treatment: Animals from each of the three dose groups (Control-canola oil, 120 mg/kg CCl4 i.p. and 1200 mg/kg CCl4 i.p.) were investigated at three time points (2, 7, and 16 hours after CCl4 injection). Indomethacin-pretreated rats were also investigated at the same three time points, and the meclofenamic acid-pretreated rats were investigated at one time point (7 hours). Each group consisted of five rats for each analysis, except the meclofenamic acid pretreatment group which consisted of six rats. Animal treatment, sample preparation, assessment of liver histology and serum enzyme activities are described elsewhere (Kadiiska et al., 2000, Free Radic. Biol. Med. 28: 838-845; Jackson, 1989, J. Pharmacol. Exp. Ther. 250: 9-21) and were carried out at NIEHS, Research Triangle Park, N.C.
(§5) Plasma sample preparation: Blood (5 ml) was drawn through single draw Vacutainer® needles (21 Gauge) into open Vacutainer® blood collection tubes containing heparin. The tubes were gently inverted 2-3 times for mixing and immediately placed on ice. Blood was centrifuged (2,000 rpm for 10 minutes at 4° C.) no more than 30 minutes after collection, and the plasma was collected, frozen on dry ice and stored at −70° C.
Measurement of the sum of free plus esterified 8-iso-PGF2α in plasma were performed using an improved GC/MS-based analysis for the quantitation of this isoprostane in plasma. A detailed protocol for this extraction and quantitation has been published (Parker et al., 2001, Mol. Biotechnol. 18: 105-118). Measurements of the sum of free plus esterified 8-iso-PGF2α in plasma were performed at NIEHS, Research Triangle Park, N.C.

Male Fisher 344 rats [2] = experiment: Plasma free 8-iso-PGF2α by GC/NICI-MS; type: in vivo, rat; settings: meclofenamic acid 5 mg/kg i.p. pretreatment; only higher CCl4 dose, 7 h
Description: as §1, §2, §3, §4, §5
Two slightly different methods developed in two different laboratories were used to measure the effect of CCl4 on the plasma levels of free 8-iso-PGF2α, and the sum of free plus esterified 8-iso-PGF2α (also known as 8-epi-PGF2α and iPF2α-III and 15-F2t-IsoP). Free 8-iso-PGF2α concentrations in plasma were determined by gas chromatography/negative ion chemical ionization mass spectrometry (GC/NICI-MS) by the method of Morrow et al. (1999, Methods Enzymol. 300: 3-12). Briefly, [2H4] 8-iso-PGF2α internal standard was added to plasma and F2-isoprostanes were extracted with a C18 Sep-Pak® Cartridge (Waters Associates, Milford, Mass.). The extracted F2-isoprostanes were converted to pentafluorobenzyl ester and purified by TLC after which they were converted to a trimethylsilyl ether derivative and subsequently analyzed by GC-MS. The assay was developed and performed at Vanderbilt University, Nashville, Tenn.

Male Fisher 344 rats [3] = experiment: Urinary MDA by HPLC with spectrophotometry; type: in vivo, rat; settings: for urinary MDA: meclofenamic acid pretreatment
Description: as §1, §2, §3, §4
(§6) Urine sample preparation: The day prior to treatment, both experimental and control animals were placed in stainless steel metabolic cages especially designed for urine collection. For Experimental Example 2, animals were placed in metabolic cages immediately after the last injection of indomethacin or meclofenamic acid. Urine was collected (in dark vials) from the animals during the following intervals: 2 to 7 hours and 7 to 16 hours after CCl4 or canola oil (controls) treatment. Urine samples from indomethacin-pretreated rats were collected from 2 to 7 hours and 7 to 16 hours after the injection of CCl4, whereas samples from meclofenamic-acid-pretreated rats were collected only from 2 to 7 hours after the injection. All urine samples were immediately frozen on dry ice and stored at −70° C.
Urinary MDA was analyzed using high pressure liquid chromatography (HPLC). To 500 μl urine samples, 25 μl BHT and 750 μl 0.5% TBA solution were added, in this order. Samples were incubated at 60° C. for 60 minutes. After cooling, chloroform (750 μl) was added and mixed well. Following centrifugation, the aqueous layer was removed and used for HPLC analysis (column […]; mobile phase, 6:4(v/v) 0.04 M acetate buffer (pH 5.5)/MeOH; detection, 532 nm). The procedure was developed and performed by OXIS Research, Portland, Oreg.

Male Fisher 344 rats [4] = experiment: Urinary free plus esterified 8-iso-PGF2α by immunoassay; type: in vivo, rat
Description: as §1, §2, §3, §4, §6
Urinary 8-iso-PGF2α concentrations were measured by the competitive immunoassay procedure in which 8-iso-PGF2α conjugated to alkaline phosphatase competed with the test analyte for antibody specific for the isoprostane. The anti-8-iso-PGF2α antibody was captured by anti-Fc antibodies immobilized on a microtiter plate. The assay was developed by Assay Designs, Inc., Ann Arbor, Mich. and performed at OXIS Research, Portland, Oreg.
In an additional method not recited in Example 1, an immunoassay was used to measure the sum of free plus esterified 8-iso-PGF2α. The immunoassay used anti-8-iso-PGF2α antibody was developed by Assay Designs, Inc., Ann Arbor, Mich., and performed at Oxis Research, Portland, Oreg.

Male Fisher 344 rats [5] = experiment: Urinary 8,12-iso-iPF2α-VI by LC/MS/MS; type: in vivo, rat; settings: for urinary 8,12-iso-iPF2α-VI, pretreated vs non-pretreated: indomethacin pretreatment
Description: as §1, §2, §3, §4, §6
Analysis of 8,12-iso-iPF2α-VI, which is, along with its epimer 5-epi-8,12-iso-iPF2α-VI, the most prevalent PGF-ring isoprostane in human urine, was accomplished by addition of a tetradeuterated analog, solid phase extraction and quantitation using liquid chromatography and tandem mass spectroscopy (LC/MS/MS) (Li et al., 1999, Proc. Natl. Acad. Sci. USA 96: 13381-13386). The measurements were performed at the University of Pennsylvania, Philadelphia, Pa.

Male Fisher 344 rats [6] = experiment: Urinary free 8-iso-PGF2α by radioimmunoassay; type: in vivo, rat
Description: as §1, §3
as §4, with “N.C. […]” for “N.C.”
In Experimental Example 2, urine samples were also analyzed for free 8-iso-PGF2α, without any extraction, by radioimmunoassay (Basu, 1998, Prost. Leuk. Ess. Fatty Acids. 58: 319-325). […]

Male Fisher 344 rats [7] = experiment: Plasma MDA, TBA colorimetric assay with 3rd derivative spectroscopy; type: in vivo, rat; settings: indomethacin pretreatment
Description: as §1, §4, §5
Two colorimetric-based assays, using third derivative spectroscopy, were also used to measure MDA in plasma. The TBA colorimetric assay is designed to measure free MDA and MDA-protein adducts (Schiff base), and therefore includes mild acid hydrolysis. The Bioxytech® LPO-586™ colorimetric assay is based upon the reaction of the chromogenic reagent N-methyl-2-phenylindole (NMPI) with MDA at 45° C. One molecule of free MDA combines with 2 molecules of the chromogenic agent to produce a stable chromophore with a maximal absorbance at 586 nm. In both assays, the concentration of MDA was determined with 3rd derivative spectroscopy. Both assays were developed by OXIS Research Inc., Portland, Oreg., and were performed at OXIS and at Loyola University Medical Center, Maywood, Ill.

Male Fisher 344 rats [8] = experiment: Plasma MDA by GC/NICI-MS; type: in vivo, rat; settings: indomethacin pretreatment; controls at 7 and 16 h, lower CCl4 dose at 2 and 16 h
Description: as §1, §2, §4, §5
Plasma MDA concentrations were also measured by using gas chromatography/negative ion chemical ionization mass spectroscopy (GC/NICI-MS) as described by Yeo et al. (Yeo et al., 1994, Anal. Biochem. 220: 391-396). The stable isotope internal standard [^2H2] MDA and an antioxidant (2,6-tert-butyl-4-methylphenol) were added to the plasma samples. The samples were then incubated at room temperature in 6.6 mol H2SO4 for 10 minutes to hydrolyze the aldehydes from the proteins. Plasma MDA was converted to a stable pentafluorophenyl hydrazine derivative which was quantified by using the GC-MS in the negative chemical ionization mode. The assay was performed at Children's Hospital Oakland Research Institute, Oakland, Calif.

COX = settings: 5 mg/kg s.c. 24, 12 and 2 hours prior to CCl4; cited from earlier work
[9] = meclofenamic acid pretreatment, 7 h

| Compound | plasma free plus esterified 8-iso-PGF2α, effect compared with that on free 8-iso-PGF2α (Male Fisher 344 rats [1]; [9]) | plasma free 8-iso-PGF2α, pretreated vs non-pretreated (Male Fisher 344 rats [2]) | urinary MDA (Male Fisher 344 rats [3]; higher dose of CCl4, 7 h) | urinary MDA (Male Fisher 344 rats [3]; low dose of CCl4, 7 h) | urinary free plus esterified 8-iso-PGF2α (immunoassay), pretreated vs non-pretreated (Male Fisher 344 rats [4]; meclofenamic acid pretreatment, high CCl4 dose, 7 h) | CCl4-induced urinary 8,12-iso-iPF2α-VI (Male Fisher 344 rats [5]; [9]) | basal urinary free 8-iso-PGF2α (radioimmunoassay) vs control group (Male Fisher 344 rats [6]; meclofenamic acid-treated rats, no CCl4) | urinary free 8-iso-PGF2α (radioimmunoassay) (Male Fisher 344 rats [6]; meclofenamic pretreatment, both doses of CCl4, 7 h) | plasma MDA (third derivative spectroscopy), pretreated vs non-pretreated (Male Fisher 344 rats [7]) | plasma MDA (GC/MS), pretreated vs non-pretreated rats (Male Fisher 344 rats [8]) | plasma free plus esterified 8-iso-PGF2α, pretreated vs non-pretreated (Male Fisher 344 rats [1]; indomethacin pretreatment, only higher CCl4 dose at 2 and 7 h) | urinary MDA, pretreated vs non-pretreated (Male Fisher 344 rats [3]; indomethacin pretreatment, controls and low-dose CCl4, both time points) | urinary free plus esterified 8-iso-PGF2α (immunoassay), pretreated vs non-pretreated (Male Fisher 344 rats [4]; indomethacin pretreatment, controls at 7 h, higher CCl4 dose at both time points) | urinary 8,12-iso-iPF2α-VI, pretreated vs non-pretreated (Male Fisher 344 rats [5]; controls, earlier time point) | urinary 8,12-iso-iPF2α-VI, pretreated vs non-pretreated (Male Fisher 344 rats [5]; higher dose CCl4) | urinary 8,12-iso-iPF2α-VI, pretreated vs non-pretreated (Male Fisher 344 rats [5]; low dose CCl4) | inhibition of COX activity in rats (COX) [%] |
| --- | --- | --- | --- | --- | --- | --- | --- | --- | --- | --- | --- | --- | --- | --- | --- | --- | --- |
| Cc1ccc(Cl)c(Nc2ccccc2C(=O)O)c1Cl [meclofenamic acid] | similar | significant decrease | significant inhibition | increased | significant decrease | increased | lower basal levels | increased | – | – | – | – | – | – | – | – | – |
| COc1ccc2c(c1)c(CC(=O)O)c(C)n2C(=O)c1ccc(Cl)cc1 [indomethacin, 1-[p-chlorobenzoyl]-5-methoxy-2-methylindole-3-acetic acid] | – | – | – | – | – | – | – | – | similarly decreased | statistically significant decrease | statistically significant suppression | increase in MDA excretion | Suppression | increased | markedly inhibited | no effect | 90 |
